Measured values from ChEMBL document CHEMBL3046001, “4-Thiazolidinone and 1-thia-3,4,9-triaza fluorene conjugates: synthesis, characterization and antimicrobial screening” (2013).
Values after ≈ are worked out from the molar mass of the structure shown. Active and inactive are the calls of the source. No cut-off for these calls is given here.

Columns and labels:
Penicillium chrysogenum [1] = test: Antifungal activity against Penicillium chrysogenum MTCC 161 assessed as growth inhibition at 750 ug/mL after 48 hr by agar diffusion method; format: functional; conditions: MTCC 161, 48 h, read-out: DIZ
Bacillus subtilis [2] = test: Antibacterial activity against Bacillus subtilis MTCC 441 assessed as growth inhibition at 1250 ug/mL after 48 hr by agar diffusion method; format: functional; conditions: MTCC 441, 48 h, read-out: DIZ
Bacillus subtilis [3] = test: Antibacterial activity against Bacillus subtilis MTCC 441 assessed as growth inhibition at 1000 ug/mL after 48 hr by agar diffusion method; format: functional; conditions: MTCC 441, 48 h, read-out: DIZ
Pseudomonas fluorescens [4] = test: Antibacterial activity against Pseudomonas fluorescens MTCC 2421 assessed as growth inhibition at 750 ug/mL after 48 hr by agar diffusion method; format: functional; conditions: MTCC 2421, 48 h, read-out: DIZ
Micrococcus luteus [5] = test: Antibacterial activity against Micrococcus luteus MTCC 1538 assessed as growth inhibition at 1250 ug/mL after 48 hr by agar diffusion method; format: functional; conditions: MTCC 1538, 48 h, read-out: DIZ
Aspergillus niger [6] = test: Antifungal activity against Aspergillus niger MTCC 2546 assessed as growth inhibition at 100 ug/mL after 48 hr by agar diffusion method; format: functional, organism-based
Penicillium chrysogenum [7] = test: Antifungal activity against Penicillium chrysogenum MTCC 161 assessed as growth inhibition at 100 ug/mL after 48 hr by agar diffusion method; format: functional, organism-based
Escherichia coli [8] = test: Antibacterial activity against Escherichia coli MTCC 1573 assessed as growth inhibition at 1250 ug/mL after 48 hr by agar diffusion method; format: functional; conditions: MTCC 1573, 48 h, read-out: DIZ
Bacillus subtilis [9] = test: Antibacterial activity against Bacillus subtilis MTCC 441 assessed as growth inhibition at 250 ug/mL after 48 hr by agar diffusion method; format: functional; conditions: MTCC 441, 48 h, read-out: DIZ
Pseudomonas fluorescens [10] = test: Antibacterial activity against Pseudomonas fluorescens MTCC 2421 assessed as growth inhibition at 1000 ug/mL after 48 hr by agar diffusion method; format: functional; conditions: MTCC 2421, 48 h, read-out: DIZ
Escherichia coli [11] = test: Antibacterial activity against Escherichia coli MTCC 1573 assessed as growth inhibition at 250 ug/mL after 48 hr by agar diffusion method; format: functional; conditions: MTCC 1573, 48 h, read-out: DIZ
Micrococcus luteus [12] = test: Antibacterial activity against Micrococcus luteus MTCC 1538 assessed as growth inhibition at 100 ug/mL after 48 hr by agar diffusion method; format: functional
Bacillus pumilus [13] = test: Antibacterial activity against Bacillus pumilus MTCC 1456 assessed as growth inhibition at 250 ug/mL after 48 hr by agar diffusion method; format: functional; conditions: MTCC 1456, 48 h, read-out: DIZ
Penicillium chrysogenum [14] = test: Antifungal activity against Penicillium chrysogenum MTCC 161 assessed as growth inhibition at 1250 ug/mL after 48 hr by agar diffusion method; format: functional; conditions: MTCC 161, 48 h, read-out: DIZ
Pseudomonas fluorescens [15] = test: Antibacterial activity against Pseudomonas fluorescens MTCC 2421 assessed as growth inhibition at 100 ug/mL after 48 hr by agar diffusion method; format: functional
Escherichia coli [16] = test: Antibacterial activity against Escherichia coli MTCC 1573 assessed as growth inhibition after 24 hr by tube dilution method; format: functional; conditions: MTCC 1573, 24 h
Pseudomonas aeruginosa [17] = test: Antibacterial activity against Pseudomonas aeruginosa MTCC 424 assessed as growth inhibition at 250 ug/mL after 48 hr by agar diffusion method; format: functional; conditions: MTCC 424, 48 h, read-out: DIZ
Pseudomonas aeruginosa [18] = test: Antibacterial activity against Pseudomonas aeruginosa MTCC 424 assessed as growth inhibition at 750 ug/mL after 48 hr by agar diffusion method; format: functional; conditions: MTCC 424, 48 h, read-out: DIZ
Aspergillus niger [19] = test: Antifungal activity against Aspergillus niger MTCC 2546 assessed as growth inhibition at 750 ug/mL after 48 hr by agar diffusion method; format: functional; conditions: MTCC 2546, 48 h, read-out: DIZ
Penicillium chrysogenum [20] = test: Antifungal activity against Penicillium chrysogenum MTCC 161 assessed as growth inhibition at 500 ug/mL after 48 hr by agar diffusion method; format: functional; conditions: MTCC 161, 48 h, read-out: DIZ
Pseudomonas fluorescens [21] = test: Antibacterial activity against Pseudomonas fluorescens MTCC 2421 assessed as growth inhibition at 1250 ug/mL after 48 hr by agar diffusion method; format: functional; conditions: MTCC 2421, 48 h, read-out: DIZ
Bacillus subtilis [22] = test: Antibacterial activity against Bacillus subtilis MTCC 441 assessed as growth inhibition after 24 hr by tube dilution method; format: functional; conditions: MTCC 441, 24 h
Staphylococcus aureus [23] = test: Antibacterial activity against Staphylococcus aureus MTCC 1430 assessed as growth inhibition after 24 hr by tube dilution method; format: functional; conditions: MTCC 1430, 24 h
Aspergillus niger [24] = test: Antifungal activity against Aspergillus niger MTCC 2546 assessed as growth inhibition at 250 ug/mL after 48 hr by agar diffusion method; format: functional
Bacillus subtilis [25] = test: Antibacterial activity against Bacillus subtilis MTCC 441 assessed as growth inhibition at 500 ug/mL after 48 hr by agar diffusion method; format: functional; conditions: MTCC 441, 48 h, read-out: DIZ
Bacillus pumilus [26] = test: Antibacterial activity against Bacillus pumilus MTCC 1456 assessed as growth inhibition at 100 ug/mL after 48 hr by agar diffusion method; format: functional; conditions: MTCC 1456, 48 h, read-out: DIZ
Aspergillus niger [27] = test: Antifungal activity against Aspergillus niger MTCC 2546 assessed as growth inhibition at 1250 ug/mL after 48 hr by agar diffusion method; format: functional; conditions: MTCC 2546, 48 h, read-out: DIZ
Aspergillus niger [28] = test: Antifungal activity against Aspergillus niger MTCC 2546 assessed as growth inhibition at 500 ug/mL after 48 hr by agar diffusion method; format: functional; conditions: MTCC 2546, 48 h, read-out: DIZ
Escherichia coli [29] = test: Antibacterial activity against Escherichia coli MTCC 1573 assessed as growth inhibition at 1000 ug/mL after 48 hr by agar diffusion method; format: functional; conditions: MTCC 1573, 48 h, read-out: DIZ
Bacillus pumilus [30] = test: Antibacterial activity against Bacillus pumilus MTCC 1456 assessed as growth inhibition at 1000 ug/mL after 48 hr by agar diffusion method; format: functional; conditions: MTCC 1456, 48 h, read-out: DIZ
Aspergillus niger [31] = test: Antifungal activity against Aspergillus niger MTCC 2546 assessed as growth inhibition after 24 hr by tube dilution method; format: functional; conditions: MTCC 2546, 24 h
Pseudomonas aeruginosa [32] = test: Antibacterial activity against Pseudomonas aeruginosa MTCC 424 assessed as growth inhibition at 100 ug/mL after 48 hr by agar diffusion method; format: functional; conditions: MTCC 424, 48 h, read-out: DIZ
Micrococcus luteus [33] = test: Antibacterial activity against Micrococcus luteus MTCC 1538 assessed as growth inhibition at 750 ug/mL after 48 hr by agar diffusion method; format: functional; conditions: MTCC 1538, 48 h, read-out: DIZ
Pseudomonas aeruginosa [34] = test: Antibacterial activity against Pseudomonas aeruginosa MTCC 424 assessed as growth inhibition at 500 ug/mL after 48 hr by agar diffusion method; format: functional; conditions: MTCC 424, 48 h, read-out: DIZ
Escherichia coli [35] = test: Antibacterial activity against Escherichia coli MTCC 1573 assessed as growth inhibition at 500 ug/mL after 48 hr by agar diffusion method; format: functional; conditions: MTCC 1573, 48 h, read-out: DIZ
Staphylococcus aureus [36] = test: Antibacterial activity against Staphylococcus aureus MTCC 1430 assessed as growth inhibition at 1000 ug/mL after 48 hr by agar diffusion method; format: functional; conditions: MTCC 1430, 48 h, read-out: DIZ
Penicillium chrysogenum [37] = test: Antifungal activity against Penicillium chrysogenum MTCC 161 assessed as growth inhibition at 250 ug/mL after 48 hr by agar diffusion method; format: functional
Escherichia coli [38] = test: Antibacterial activity against Escherichia coli MTCC 1573 assessed as growth inhibition at 750 ug/mL after 48 hr by agar diffusion method; format: functional; conditions: MTCC 1573, 48 h, read-out: DIZ
Penicillium chrysogenum [39] = test: Antifungal activity against Penicillium chrysogenum MTCC 161 assessed as growth inhibition after 24 hr by tube dilution method; format: functional; conditions: MTCC 161, 24 h

| SMILES | zone of inhibition at 750 µg/mL (Penicillium chrysogenum [1]) [mm] | zone of inhibition at 1250 µg/mL (Bacillus subtilis [2]) [mm] | zone of inhibition at 1000 µg/mL (Bacillus subtilis [3]) [mm] | zone of inhibition at 750 µg/mL (Pseudomonas fluorescens [4]) [mm] | zone of inhibition at 1250 µg/mL (Micrococcus luteus [5]) [mm] | growth inhibition (GI) (Aspergillus niger [6]) | growth inhibition (GI) (Penicillium chrysogenum [7]) | zone of inhibition at 1250 µg/mL (Escherichia coli [8]) [mm] | zone of inhibition at 250 µg/mL (Bacillus subtilis [9]) [mm] | zone of inhibition at 1000 µg/mL (Pseudomonas fluorescens [10]) [mm] | zone of inhibition at 250 µg/mL (Escherichia coli [11]) [mm] | growth inhibition (GI) (Micrococcus luteus [12]) | zone of inhibition at 250 µg/mL (Bacillus pumilus [13]) [mm] | zone of inhibition at 1250 µg/mL (Penicillium chrysogenum [14]) [mm] | MIC (Escherichia coli [16]) [µg/mL] | zone of inhibition at 250 µg/mL (Pseudomonas aeruginosa [17]) [mm] | zone of inhibition at 750 µg/mL (Pseudomonas aeruginosa [18]) [mm] | zone of inhibition at 750 µg/mL (Aspergillus niger [19]) [mm] | zone of inhibition at 500 µg/mL (Penicillium chrysogenum [20]) [mm] | zone of inhibition at 1250 µg/mL (Pseudomonas fluorescens [21]) [mm] | other results |
| --- | --- | --- | --- | --- | --- | --- | --- | --- | --- | --- | --- | --- | --- | --- | --- | --- | --- | --- | --- | --- | --- |
| CC1SCC(=O)N1c1nnc2c3cc(Cl)ccc3nc-2s1 (stereo not drawn) | 14 | 21 | 19 | 12 | 19 | inactive | inactive | 21 | 10 | 15 | 11 | inactive | 10 | 20 | 30 (≈ 89.1 µM) | 9 | 17 | 13 | 12 | 19 | growth inhibition (GI) (Pseudomonas fluorescens [15]): inactive; MIC (Bacillus subtilis [22]): 50 µg/mL (≈ 148 µM); MIC (Staphylococcus aureus [23]): 150 µg/mL (≈ 445 µM); growth inhibition (GI) (Aspergillus niger [24]): inactive; zone of inhibition at 500 µg/mL (Bacillus subtilis [25]): 15 mm; zone of inhibition at 100 µg/mL (Bacillus pumilus [26]): 8 mm; zone of inhibition at 1250 µg/mL (Aspergillus niger [27]): 17 mm; zone of inhibition at 500 µg/mL (Aspergillus niger [28]): 10 mm; zone of inhibition at 1000 µg/mL (Escherichia coli [29]): 19 mm; zone of inhibition at 1000 µg/mL (Bacillus pumilus [30]): 15 mm; MIC (Aspergillus niger [31]): 250 µg/mL (≈ 742 µM); zone of inhibition at 100 µg/mL (Pseudomonas aeruginosa [32]): 7 mm; zone of inhibition at 750 µg/mL (Micrococcus luteus [33]): 14 mm; zone of inhibition at 500 µg/mL (Pseudomonas aeruginosa [34]): 14 mm; zone of inhibition at 500 µg/mL (Escherichia coli [35]): 14 mm; zone of inhibition at 1000 µg/mL (Staphylococcus aureus [36]): 15 mm; growth inhibition (GI) (Penicillium chrysogenum [37]): inactive; zone of inhibition at 750 µg/mL (Escherichia coli [38]): 17 mm; MIC (Penicillium chrysogenum [39]): 250 µg/mL (≈ 742 µM) |
| O=C1CSC(c2ccccn2)N1c1nnc2c3ccccc3nc-2s1 (stereo not drawn) | 13 | 18 | 15 | 15 | 17 | inactive | inactive | 22 | 10 | 18 | 9 | inactive | 10 | 17 | 40 (≈ 109 µM) | 9 | 15 | 14 | 12 | 20 | zone of inhibition at 100 µg/mL (Pseudomonas fluorescens [15]; MTCC 2421, 48 h, read-out: DIZ): 7 mm; MIC (Bacillus subtilis [22]): 40 µg/mL (≈ 109 µM); MIC (Staphylococcus aureus [23]): 200 µg/mL (≈ 547 µM); zone of inhibition at 250 µg/mL (Aspergillus niger [24]; MTCC 2546, 48 h, read-out: DIZ): 8 mm; zone of inhibition at 500 µg/mL (Bacillus subtilis [25]): 12 mm; zone of inhibition at 100 µg/mL (Bacillus pumilus [26]): 8 mm; zone of inhibition at 1250 µg/mL (Aspergillus niger [27]): 17 mm; zone of inhibition at 500 µg/mL (Aspergillus niger [28]): 11 mm; zone of inhibition at 1000 µg/mL (Escherichia coli [29]): 18 mm; zone of inhibition at 1000 µg/mL (Bacillus pumilus [30]): 19 mm; MIC (Aspergillus niger [31]): 150 µg/mL (≈ 410 µM); zone of inhibition at 100 µg/mL (Pseudomonas aeruginosa [32]): 7 mm; zone of inhibition at 750 µg/mL (Micrococcus luteus [33]): 14 mm; zone of inhibition at 500 µg/mL (Pseudomonas aeruginosa [34]): 13 mm; zone of inhibition at 500 µg/mL (Escherichia coli [35]): 13 mm; zone of inhibition at 1000 µg/mL (Staphylococcus aureus [36]): 12 mm; zone of inhibition at 250 µg/mL (Penicillium chrysogenum [37]; MTCC 161, 48 h, read-out: DIZ): 9 mm; zone of inhibition at 750 µg/mL (Escherichia coli [38]): 15 mm; MIC (Penicillium chrysogenum [39]): 150 µg/mL (≈ 410 µM) |
